Data published in ChEMBL document CHEMBL4765293, “Specific stabilization of promoter G-Quadruplex DNA by 2,6-disubstituted amidoanthracene-9,10-dione based dimeric distamycin analogues and their selective cancer cell cytotoxicity” (Eur J Med Chem, 2020).
Active and inactive are the calls of the source. No cut-off for these calls is given here.

Assays:
[1] = system: Calf thymus DNA; test: Binding affinity to calf thymus duplex DNA assessed as slight change in ellipticity of the CD signatures and topology by circular dichroism spectroscopy; format: nucleic-acid assay; conditions: Bos taurus
[2] = system: HeLa; test: Induction of apoptosis in human HeLa cells assessed as nuclear condensation and fragmentation at 5 uM measured after 24 hrs by DAPI staining based confocal laser scanning microscopy analysis; format: functional, cell-based
[3] = system: HeLa; test: Induction of apoptotic cell death in human HeLa cells assessed as change in nuclear morphology at 3 to 5 uM after 12 hrs by acridine orange/ethidium bromide staining based fluorescence microscopy; format: functional; conditions: dose 3-5 µM
[4] = species: Homo sapiens; test: Binding affinity to c-MYC ds DNA (unknown origin) assessed as slight change in ellipticity of the CD signatures and topology by circular dichroism spectroscopy
[5] = system: Quadruplex DNA; test: Binding affinity to c-MYC G4 quadruplex DNA (unknown orgin) by cyclic voltammetry; format: nucleic-acid assay
[6] = Selectivity index, binding affinity to c-MYC G4 quadruplex DNA (unknown origin) to binding affinity c-MYC ds DNA (unknown origin)
[7] = system: Quadruplex DNA; test: Binding affinity to human telomeric H21 G4 quadruplex DNA in presence of NaCl assessed as increase in fluorescence intensity at 0.2 uM by fluorescence spectroscopic analysis; format: nucleic-acid assay
[8] = system: Quadruplex DNA; test: Binding affinity to human telomeric H21 G4-quadruplex DNA assessed as slight change in ellipticity of the CD signatures and topology in presence KCl of by circular dichroism spectroscopy; format: nucleic-acid assay
[9] = system: Quadruplex DNA; test: Binding affinity to c-MYC G4-quadruplex DNA (unknown orgin) at 100 uM by ethidium bromide displacement assay; format: nucleic-acid assay
[10] = Binding affinity to c-MYC ds DNA (unknown orgin) by UV- vis spectrophotometric analysis
[11] = system: Quadruplex DNA; test: Binding affinity to Human telomeric H21 G4 quadruplex DNA (unknown origin) in presence of KCl by UV- vis spectrophotometric analysis; format: nucleic-acid assay
[12] = system: Quadruplex DNA; test: Binding affinity to c-KIT2 G4-quadruplex DNA (unknown orgin) assessed increase in melting temperature measured after 12 hrs by thermal denaturation based spectrophotometric analysis; format: nucleic-acid assay
[13] = system: Quadruplex DNA; test: Binding affinity to c-KIT2 G4-quadruplex DNA (unknown origin) by UV- vis spectrophotometric analysis; format: nucleic-acid assay
[14] = system: Quadruplex DNA; test: Binding affinity to c-KIT1 G4-quadruplex DNA (unknown orgin) assessed increase in melting temperature measured after 12 hrs by thermal denaturation based spectrophotometric analysis; format: nucleic-acid assay
[15] = system: Quadruplex DNA; test: Binding affinity to c-MYC G4-quadruplex DNA (unknown orgin) assessed increase in melting temperature measured after 12 hrs by thermal denaturation based spectrophotometric analysis; format: nucleic-acid assay
[16] = system: HEK-293T; test: Cytotoxicity against human HEK293T cells assessed as cell viability incubated for 72 hr by MTT assay; format: functional, cell-based
[17] = system: Quadruplex DNA; test: Binding affinity to c-MYC G4-quadruplex DNA (unknown origin) assessed as fluorescence life time by fluorescence spectroscopic analysis relative to compound alone group; format: nucleic-acid assay
[18] = system: Quadruplex DNA; test: Binding affinity to human telomeric H21 G4 quadruplex DNA in presence of NaCl by UV- vis spectrophotometric analysis; format: nucleic-acid assay
[19] = system: HeLa; test: Cytotoxicity against human HeLa cells assessed as cell viability incubated for 72 hr by MTT assay; format: functional, cell-based
[20] = system: Quadruplex DNA; test: Binding affinity to human telomeric H21 G4 quadruplex DNA in presence of KCl assessed as increase in fluorescence intensity at 0.2 uM by fluorescence spectroscopic analysis; format: nucleic-acid assay
[21] = system: Quadruplex DNA; test: Induction of stabilization of c-MYC G-quadruplex DNA template sequence (unknown orgin) assessed as inhibition of Taq polymerase mediated DNA polymerization at high concentration in presence K+ measured after 30 mins by Taq DNA polymerase stop assay; format: nucleic-acid assay
[22] = system: Quadruplex DNA; test: Binding affinity to c-MYC G4-quadruplex DNA (unknown orgin) assessed as slight change in ellipticity of the CD signatures and topology by circular dichroism spectroscopy; format: nucleic-acid assay
[23] = system: Quadruplex DNA; test: Binding affinity to human c-KIT1 G4-quadruplex DNA (unknown origin) by UV- vis spectrophotometric analysis; format: nucleic-acid assay
[24] = system: NIH3T3; test: Cytotoxicity against mouse NIH3T3 cells assessed as cell viability incubated for 72 hr by MTT assay; format: cell-based; conditions: NIH3T3, 72 h
[25] = system: Quadruplex DNA; test: Binding affinity to human telomeric H21 G4-quadruplex DNA assessed as slight change in ellipticity of the CD signatures and topology in presence NaCl of by circular dichroism spectroscopy; format: nucleic-acid assay
[26] = system: Quadruplex DNA; test: Binding affinity to c-KIT2 G4 quadruplex (unknown origin) assessed as increase in fluorescence intensity at 0.2 uM by fluorescence spectroscopic analysis; format: nucleic-acid assay
[27] = system: Calf thymus DNA; test: Binding affinity to calf thymus duplex DNA by UV- vis spectrophotometric analysis; format: nucleic-acid assay; conditions: Bos taurus
[28] = system: Quadruplex DNA; test: Binding affinity to c-KIT1 G4 quadruplex (unknown origin) assessed as increase in fluorescence intensity at 0.2 uM by fluorescence spectroscopic analysis; format: nucleic-acid assay
[29] = system: Quadruplex DNA; test: Binding affinity to c-Myc G4-quadruplex DNA (unknown origin) by UV- vis spectrophotometric analysis; format: nucleic-acid assay
[30] = Cytotoxicity against human HDFa cells assessed as cell viability incubated for 72 hr by MTT assay; format: cell-based
[31] = system: Quadruplex DNA; test: Binding affinity to c-MYC G4 quadruplex (unknown origin) assessed as increase in fluorescence intensity at 0.2 uM by fluorescence spectroscopic analysis; format: nucleic-acid assay
[32] = system: HeLa; test: Induction of apoptotic cell death in human HeLa cells assessed as morphological changes from the spindle-shaped cells to round-shaped at 2 to 10 uM measured after 24 hrs by acridine orange/ethidium bromide staining based fluorescence microscopy; format: functional
[33] = system: HeLa; test: Induction of apoptosis in human HeLa cells at 100 uM after 24 to 48 hrs by annexin V/PI- staining based flow cytometric analysis; format: functional, cell-based; conditions: time 24-48 hrs
[34] = system: HeLa; test: Induction of apoptosis in human HeLa cells at 5 uM after 24 to 48 hrs by annexin V/PI- staining based flow cytometric analysis; format: functional, cell-based
[35] = system: HeLa; test: Induction of apoptotic cell death in human HeLa cells assessed as morphological changes from the spindle-shaped cells to round-shaped at 50 to 200 uM measured after 24 hrs by acridine orange/ethidium bromide staining based fluorescence microscopy; format: functional; conditions: dose 50-200 µM
[36] = system: HeLa; test: Induction of apoptosis in human HeLa cells at 7 uM after 24 to 48 hrs by annexin V/PI- staining based flow cytometric analysis; format: functional, cell-based
[37] = system: HeLa; test: Induction of apoptosis in human HeLa cells assessed as nuclear condensation and fragmentation at 7 uM measured after 24 hrs by DAPI staining based confocal laser scanning microscopy analysis; format: functional, cell-based
[38] = system: HeLa; test: Induction of apoptotic cell death in human HeLa cells assessed as change in nuclear morphology at 5 to 7 uM after 12 hrs by acridine orange/ethidium bromide staining based fluorescence microscopy; format: functional; conditions: dose 5-7 µM

Row | Selectivity Index [6] | Activity [7] | Ka [10] | Ka [11] | ΔTm [12] [°C] | Ka [13] | ΔTm [14] [°C] | ΔTm [15] [°C] | Time [17] [nanoseconds] | Ka [18] | Activity [20] | Activity [21] | Ka [23] | Activity [26] | Ka [27] | Activity [28] | Ka [29] | Compound | IC50 [16] [µM] | IC50 [19] [µM] | IC50 [24] [µM] | other results
1 | 380 | Active | 0.012 10^6/M | 1.1 10^6/M | 6.8 | 4.1 10^6/M | 9.9 | 11.1 | 0.37 | 0.6 10^6/M | Active | Active | 3.1 10^6/M | Active | 0.01 10^6/M | Active | 3.8 10^6/M | Cn1cc(NC(=O)c2cc(NC(=O)c3cccn3C)cn2C)cc1C(=O)NCCC[N+](C)(C)CC(=O)Nc1ccc2c(c1)C(=O)c1ccc(NC(=O)C[N+](C)(C)CCCNC(=O)c3cc(NC(=O)c4cc(NC(=O)c5cccn5C)cn4C)cn3C)cc1C2=O | 15 | 5.3 | > 100 | Activity [1]: Active; Activity [2]: Active; Activity [3]: Active; Activity [4]: Active; Activity [5]: Active; Activity [8]: Active; Activity [9]: Active; Activity [22]: Active; Activity [25]: Active; IC50 [30]: > 100 µM; Activity [31]: Active
2 | 3.2 | Active | 0.05 10^6/M | 0.07 10^6/M | – | 0.09 10^6/M | – | – | – | 0.05 10^6/M | Active | – | 0.11 10^6/M | Active | 0.06 10^6/M | Active | 0.16 10^6/M | C[N+](C)(C)CC(=O)Nc1ccc2c(c1)C(=O)c1ccc(NC(=O)C[N+](C)(C)C)cc1C2=O | – | – | – | –
3 | 175 | Active | 0.018 10^6/M | 0.3 10^6/M | 5.1 | 1.8 10^6/M | 7.9 | 7.4 | 0.55 | 0.6 10^6/M | Active | Active | 1.3 10^6/M | Active | 0.016 10^6/M | Active | 2.8 10^6/M | Cn1cc(NC(=O)c2cccn2C)cc1C(=O)NCCC[N+](C)(C)CC(=O)Nc1ccc2c(c1)C(=O)c1ccc(NC(=O)C[N+](C)(C)CCCNC(=O)c3cc(NC(=O)c4cccn4C)cn3C)cc1C2=O | 19 | 7.4 | > 100 | Activity [1]: Active; Activity [4]: Active; Activity [8]: Active; Activity [9]: Active; Activity [37]: Active; Activity [38]: Active; Activity [22]: Active; Activity [25]: Active; IC50 [30]: > 100 µM; Activity [31]: Active

Row | Compound | Selectivity Index [6] | Activity [7] | Ka [10] | Ka [11] | ΔTm [12] [°C] | Ka [13] | ΔTm [14] [°C] | ΔTm [15] [°C] | Time [17] [nanoseconds] | Ka [18] | Activity [20] | Activity [21] | Ka [23] | Activity [26] | Ka [27] | Activity [28] | Ka [29] | IC50 [16] [µM] | IC50 [19] [µM] | IC50 [24] [µM] | other results
4 | Cn1cccc1C(=O)NCCC[N+](C)(C)CC(=O)Nc1ccc2c(c1)C(=O)c1ccc(NC(=O)C[N+](C)(C)CCCNC(=O)c3cccn3C)cc1C2=O.[Cl-].[Cl-] | 70 | Active | 0.025 10^6/M | 0.5 10^6/M | 1.2 | 0.8 10^6/M | 4.7 | 3.2 | 0.54 | 0.6 10^6/M | Active | Active | 0.6 10^6/M | Active | 0.02 10^6/M | Active | 1.4 10^6/M | 43 | > 100 | > 100 | AC50 [32]: Active; Activity [33]: Active; AC50 [34]: Active; IC50 [30]: > 100 µM; Activity [31]: Active; Activity [35]: Active; AC50 [36]: Active
